Test results taken from ChEMBL document CHEMBL5724914, “Linking interpersonal differences in gut microbiota composition and drug biotransformation activity” (2024).

Experiments:
[1] = (§1) The drug is tested on WLS-010 corresponding to human gut metagenome with ENA study accession number: PRJEB37062 and ENA sample accession number: ERS12561743 for biotransformation under anaerobic condition. The drug concentrations were measured over 9 timepoints collected between 0 and 24 hours of incubation by liquid-chromatography-coupled mass spectrometry (LC–MS); conditions: 2 µM
[2] = human gut metagenome, 24 h, 2 µM
[3] = human gut metagenome, 24 h, 2 µM; remark: listed apart in the source
[4] = as §1, with “Z-014” for “WLS-010”, “rat” for “human”, “ERS12561814” for “ERS12561743”; conditions: 2 µM
[5] = as §1, with “WLS-052” for “WLS-010”, “ERS12561747” for “ERS12561743”; conditions: 2 µM
[6] = as §1, with “WLS-310” for “WLS-010”, “ERS12561785” for “ERS12561743”; conditions: 2 µM
[7] = as §1, with “WLS-039” for “WLS-010”, “ERS12561746” for “ERS12561743”; conditions: 2 µM
[8] = human gut metagenome, 24 h, 2 µM; remark: listed apart in the source
[9] = as §1, with “Z-019” for “WLS-010”, “rat” for “human”, “ERS12561818” for “ERS12561743”; conditions: 2 µM
[10] = human gut metagenome, 24 h, 2 µM; remark: listed apart in the source
[11] = human gut metagenome, 24 h, 2 µM; remark: listed apart in the source
[12] = human gut metagenome, 24 h, 2 µM; remark: listed apart in the source
[13] = as §1, with “Z-012” for “WLS-010”, “to” for “to human gut”, “ERS12561812” for “ERS12561743”; conditions: 2 µM
[14] = human gut metagenome, 24 h, 2 µM; remark: listed apart in the source
[15] = as §1, with “Z-006” for “WLS-010”, “mouse” for “human”, “ERS12561806” for “ERS12561743”; conditions: 2 µM
[16] = as §1, with “Z-002” for “WLS-010”, “rabbit” for “human”, “ERS12561802” for “ERS12561743”; conditions: 2 µM
[17] = as §1, with “WLS-170” for “WLS-010”, “ERS12561762” for “ERS12561743”; conditions: 2 µM
[18] = as §1, with “WLS-098” for “WLS-010”, “ERS12561754” for “ERS12561743”; conditions: 2 µM
[19] = human gut metagenome, 24 h, 2 µM; remark: listed apart in the source
[20] = as §1, with “Z-008” for “WLS-010”, “to” for “to human gut”, “ERS12561808” for “ERS12561743”; conditions: 2 µM
Further: call rule not given here.

Bacterial Biotransformation [1] | Bacterial Biotransformation [2] | Bacterial Biotransformation [3] | Bacterial Biotransformation [4] | Bacterial Biotransformation [5] | Bacterial Biotransformation [6] | Bacterial Biotransformation [7] | Bacterial Biotransformation [8] | Bacterial Biotransformation [9] | Bacterial Biotransformation [10] | Bacterial Biotransformation [11] | Bacterial Biotransformation [12] | Bacterial Biotransformation [13] | Bacterial Biotransformation [14] | Bacterial Biotransformation [15] | Bacterial Biotransformation [16] | Bacterial Biotransformation [17] | Bacterial Biotransformation [18] | Bacterial Biotransformation [19] | Bacterial Biotransformation [20] | Structure (SMILES)
Compound NOT metabolized | Compound NOT metabolized | Compound NOT metabolized | Compound NOT metabolized | Compound NOT metabolized | Compound NOT metabolized | Compound NOT metabolized | Compound metabolized | Compound NOT metabolized | Compound NOT metabolized | Compound NOT metabolized | Compound NOT metabolized | Compound NOT metabolized | Compound NOT metabolized | Compound NOT metabolized | Compound NOT metabolized | Compound metabolized | Compound metabolized | Compound NOT metabolized | Compound NOT metabolized | CCOc1ccc2nc(S(N)(=O)=O)sc2c1 [ETHOXZOLAMIDE]
Compound metabolized | Compound metabolized | Compound metabolized | Compound NOT metabolized | Compound metabolized | Compound metabolized | Compound metabolized | Compound metabolized | Compound NOT metabolized | Compound metabolized | Compound NOT metabolized | Compound metabolized | Compound NOT metabolized | Compound NOT metabolized | Compound NOT metabolized | Compound NOT metabolized | Compound metabolized | Compound metabolized | Compound metabolized | Compound NOT metabolized | CCc1cccc2c3c([nH]c12)C(CC)(CC(=O)O)OCC3 (stereo not given) [ETODOLAC]
Compound metabolized | Compound metabolized | Compound metabolized | Compound metabolized | Compound metabolized | Compound metabolized | Compound metabolized | Compound metabolized | Compound NOT metabolized | Compound metabolized | Compound metabolized | Compound metabolized | Compound NOT metabolized | Compound metabolized | Compound metabolized | Compound metabolized | Compound metabolized | Compound metabolized | Compound metabolized | Compound metabolized | CC(=O)OCC(CCn1cnc2cnc(N)nc21)COC(C)=O [FAMCICLOVIR]
Compound NOT metabolized | Compound NOT metabolized | Compound NOT metabolized | Compound NOT metabolized | Compound NOT metabolized | Compound NOT metabolized | Compound NOT metabolized | Compound NOT metabolized | Compound NOT metabolized | Compound NOT metabolized | Compound NOT metabolized | Compound NOT metabolized | Compound NOT metabolized | Compound NOT metabolized | Compound NOT metabolized | Compound NOT metabolized | Compound NOT metabolized | Compound NOT metabolized | Compound NOT metabolized | Compound NOT metabolized | CC1Cc2ccccc2N1NC(=O)c1ccc(Cl)c(S(N)(=O)=O)c1 (stereo not given) [INDAPAMIDE]
Compound metabolized | Compound metabolized | Compound metabolized | Compound NOT metabolized | Compound metabolized | Compound metabolized | Compound metabolized | Compound metabolized | Compound NOT metabolized | Compound NOT metabolized | Compound metabolized | Compound metabolized | Compound NOT metabolized | Compound NOT metabolized | Compound NOT metabolized | Compound NOT metabolized | Compound metabolized | Compound metabolized | Compound metabolized | Compound NOT metabolized | COc1ccc2c(c1)c(CC(=O)O)c(C)n2C(=O)c1ccc(Cl)cc1 [INDOMETHACIN]
Compound NOT metabolized | Compound NOT metabolized | Compound NOT metabolized | Compound NOT metabolized | Compound NOT metabolized | Compound NOT metabolized | Compound NOT metabolized | Compound NOT metabolized | Compound NOT metabolized | Compound NOT metabolized | Compound NOT metabolized | Compound NOT metabolized | Compound NOT metabolized | Compound NOT metabolized | Compound NOT metabolized | Compound NOT metabolized | Compound NOT metabolized | Compound NOT metabolized | Compound NOT metabolized | Compound NOT metabolized | CC(CCc1ccccc1)NCC(O)c1ccc(O)c(C(N)=O)c1 (stereo not given) [LABETALOL]
Compound NOT metabolized | Compound NOT metabolized | Compound metabolized | Compound NOT metabolized | Compound NOT metabolized | Compound NOT metabolized | Compound NOT metabolized | Compound NOT metabolized | Compound NOT metabolized | Compound metabolized | Compound NOT metabolized | Compound NOT metabolized | Compound NOT metabolized | Compound NOT metabolized | Compound NOT metabolized | Compound NOT metabolized | Compound metabolized | Compound metabolized | Compound NOT metabolized | Compound NOT metabolized | Nc1nnc(-c2cccc(Cl)c2Cl)c(N)n1 [LAMOTRIGINE]
Compound metabolized | Compound metabolized | Compound metabolized | Compound NOT metabolized | Compound metabolized | Compound metabolized | Compound metabolized | Compound metabolized | Compound NOT metabolized | Compound metabolized | Compound metabolized | Compound NOT metabolized | Compound NOT metabolized | Compound NOT metabolized | Compound NOT metabolized | Compound metabolized | Compound metabolized | Compound NOT metabolized | Compound metabolized | Compound NOT metabolized | OC(c1cc(C(F)(F)F)nc2c(C(F)(F)F)cccc12)C1CCCCN1 (stereo not given) [MEFLOQUINE]
